Where no end group is shown, it is not given here. [ ]: non-standard residue; d: D form.
Key:
H929 cells = test: Detection of apoptosis, annexin V staining and FACS, suspension culture; type: cell-based
Procedure: FIG. 17 is a graph showing that HYD1 induces apoptosis as a single agent in 8226 and H929 cells cultured in suspension. 8226 and H929 cells were either treated with varying concentrations of HYD1 or vehicle control (equal volume sterile double distilled water) for 24 hours and apoptotic cells were detected by FACS analysis of annexin V positive cells. HYD1 specific apoptosis equals cell death due to peptide minus any apoptosis detected in control cells.
200 μM ZVAD-FMK was added to H929 cells for 30 minutes prior to the addition of either 75 μg/ml HYD1S or 15 μM Melphalan. Apoptosis was measured 24 hours after drug treatment by annexin/PI staining and apoptotic cells were detected by FACS analysis. Three independent experiments were performed and shown is a representative experiment.
Detection of Apoptosis. […] Blood, 1999; 93:1658-1667). The assay was performed in triplicate and 3 independent experiments were performed. Caspase 3 and 8 activity was measured at 6 and 24 hrs post peptide treatment per manufactures' instructions (BD Biosciences, San Jose, Calif.). The caspase assays were performed in triplicate and repeated twice.
Myeloma cells were plated at a density of 400,000 cells per ml in a 24 well plate. Cells were treated with the indicated dose of the peptide for 24 hours. Following 24 hrs of peptide exposure, apoptotic cells were detected using Annexin V staining and FACS analysis. Ten thousand events were analyzed by flow cytometry (Becton Dickinson, San Jose, Calif.). Experiments were performed in triplicate and repeated twice. Shown is a representative figure.

[1] = test system: phospho-Pyk2 in 8226 cells; test: Phospho-Pyk2 levels (immunoblot); type: cell-based
H929 MM = test: SCID-Hu in vivo model, tumor burden; set-up: species or system SCID mice; conditions: H929, 8 mg/kg I.P. daily for 14 days starting day 28
Procedure: Tumor burden was measured by circulating […] levels. On day 28 (before drug treatment), measurements were recorded for each individual mouse and subsequent values obtained weekly are represented as a ratio of day 28 (day X/day 28). N=4 mice per group. HYD1 was administered I.P. at 8 mg/kg daily for 14 days (starting day 28).
SCID-Hu model. The SCID-Hu model was performed as previously described (Zhu K et al. Blood, 2005; 105:4759-4766). Briefly, SCID/Beige mice 4-6 weeks old were purchased from Taconic (Germantown, N.Y.). Fetal tissue (18-23 weeks) was obtained from Advance Bioscience Resource (Alameda, Calif.) in compliance with state and federal government regulations. Two bones were surgically implanted in the mammary fat pad of 6-8 week old female SCID mice. […] At 28 days, baseline tumor burden was quantified in the sera using either a lambda (8226) or kappa (H929) ELISA kit per manufacture instructions (Bethyl, Montgomery, Tex.) and mice were randomized into treatment groups. […] Tumor burden was assessed weekly by measuring kappa or lambda levels in the sera.
The SCID-Hu model consists of implanting human fetal bone into the mammary mouse fat pad of SCID mice. […] Human paraprotein can be measured in the mouse sera and levels represent a good marker for evaluating tumor burden and response to chemotherapy. […]

ERK = test: Activation of ERK signaling; type: cell-based
Procedure: HYD1, when introduced as a soluble ligand, completely blocks random hapotaxis on laminin 322 and enhanced cellular signals are coupled with the loss of cell motility. […] Using this endpoint as an indicator of HYD1 bioactivity, the truncated and alanine-substituted variants of HYD1 were tested for their ability to activate ERK. Activation of ERK at 10 minutes post-treatment was conserved with alanine-substitution only at the N-terminal lysine and C-terminal glycine (FIG. 16A-1). […] Taken together (FIG. 16C-2), the results (FIGS. 16A-1, 16A-2, 16B, 16C-1) indicate that activation of ERK signaling required ikmviswxx (SEQ ID NO:48).

For “kikmviswkg ([dK][dI][dK][dM][dV][dI][dS][dW][dK]G) [HYD1]”, the “protection from induced cell death by pan caspase inhibitor ZVAD-FMK” value (H929 cells; H929 cells, 200 μM ZVAD-FMK 30 minutes prior, apoptosis at 24 hours, annexin/PI) was “only marginally protected”, the “annexin V positive cells following 6 hours of treatment” value (H929 cells; H929 cells, 6 hours) was “can be detected” and the “induction of annexin V positive cells” value (H929 cells; H929 cells, suspension culture, single agent, 24 hours) was “dose dependent induction of annexin V positive cells”. For the same substance, the “melphalan-induced apoptosis in cells cultured in suspension” value (H929 cells; H929 cells, suspension, peptide with melphalan) was “increased melphalan-induced apoptosis”, the “sensitivity to HYD1 treatment, H929 compared to 8226 cells” value (H929 cells; suspension culture) was “H929 cells are more sensitive” and the phospho-Pyk2 levels [1] was “decreased levels of phospho-Pyk2”. The “tumor growth in vivo compared to vehicle control” value (H929 MM) was “reduces H929 MM growth in vivo”, the “time of maximal activation of ERK post-treatment” value (ERK) was 10 min and the “activation of ERK” value (ERK; 10 minutes post-treatment) was “induces activation of ERK”.
